Results as given in patent publication US20240067693A1, “POLYPEPTIDES AND USES THEREOF” (MEDIMMUNE LIMITED, priority 2020, published 2024).
Numbered stars: 1 amine (or outer) side, 2 acyl side, 3 side chain; on linkers, the order of the positions; unused ones are H or OH. Bridge positions count the residues as written; N and C are the ends. Square brackets hold non-standard residues; d marks the D form. Side chains are listed from the residue outwards. Peptide text beside a SMILES is read from it. * marks the point of attachment. C18 diacid = O=C(O)CCCCCCCCCCCCCCCCC(=O)*; γGlu = O=C(O)[C@H](CCC(=O)[*:2])N[*:1]; Aib = CC(C)(N)C(=O)O

Legend:
[1] = target: T1, human amylin receptor (calcitonin receptor co-expressed with receptor activity modifying protein, RAMP3) (hAMYR3) (Homo sapiens, UniProt O60896+P30988); assay: cAMP production in 1321N1 cells with stable recombinant expression of human amylin receptor (hAMYR3); type: cell-based; conditions: for Ratio (selectivity hAMYR vs hCTR, ratio of EC50 values at the two receptors): EC50 hCTR / EC50 hAMYR3; for EC50: cAMP, 1321N1 cells, assay buffer with 0.1% BSA, read-out: EC50 (pM) hAMYR3
T1 construct: expressed in transfected cells
T1 sequence (P30988 25-474): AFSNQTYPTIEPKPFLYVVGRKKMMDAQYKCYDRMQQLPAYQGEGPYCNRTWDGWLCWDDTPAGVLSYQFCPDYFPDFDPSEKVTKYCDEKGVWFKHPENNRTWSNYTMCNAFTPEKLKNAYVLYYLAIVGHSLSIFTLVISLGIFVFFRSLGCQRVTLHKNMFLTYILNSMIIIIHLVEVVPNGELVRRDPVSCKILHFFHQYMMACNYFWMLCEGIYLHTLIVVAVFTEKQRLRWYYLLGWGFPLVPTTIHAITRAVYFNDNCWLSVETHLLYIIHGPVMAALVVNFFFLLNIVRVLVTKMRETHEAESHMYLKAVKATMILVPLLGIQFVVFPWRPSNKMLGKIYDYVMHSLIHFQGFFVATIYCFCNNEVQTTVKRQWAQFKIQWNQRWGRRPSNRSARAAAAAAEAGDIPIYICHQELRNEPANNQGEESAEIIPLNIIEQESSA
T1 sequence (O60896 24-148 partner): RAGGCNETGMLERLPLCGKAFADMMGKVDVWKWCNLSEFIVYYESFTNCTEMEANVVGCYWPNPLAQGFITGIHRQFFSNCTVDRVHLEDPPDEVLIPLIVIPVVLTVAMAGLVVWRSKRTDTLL
How it was run: (§1)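 Receptor-expressing cells (human receptors in 1321N1, rat receptors in HEK) incubated 30 min at room temperature with peptide in HBSS/HEPES pH 7.4, 0.1% BSA, 0.5 mM IBMX. cAMP read by HTRF; EC50 from 4-parameter fit as % of maximal amylin or calcitonin response.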

[2] = target: T2, human calcitonin receptor (hCTR) (Homo sapiens, UniProt P30988); assay: cAMP production in 1321N1 cells with stable recombinant expression of human calcitonin receptor (hCTR); type: cell-based; conditions: cAMP, 1321N1 cells, assay buffer with 0.1% BSA; read-out: EC50 (pM) hCTR
T2 construct: expressed in transfected cells
T2 sequence (P30988 25-474): T1 sequence (P30988 25-474)
How it was run: as §1

Row | SMILES | Ratio (selectivity hAMYR vs hCTR, ratio of EC50 values at the two receptors) [1] | EC50 [1] | EC50 [2]
1 | CC[C@H](C)[C@H](NC(=O)[C@@H]1CCCN1C(=O)CNC(=O)[C@H](Cc1ccccc1)NC(=O)[C@H](CC(N)=O)NC(=O)[C@H](CC(N)=O)NC(=O)[C@H](CO)NC(=O)[C@H](CO)NC(=O)[C@H](Cc1c[nH]cn1)NC(=O)C(C)(C)NC(=O)[C@H](CC(C)C)NC(=O)[C@H](Cc1ccccc1)NC(=O)[C@H](CC(N)=O)NC(=O)[C@H](C)NC(=O)[C@H](CC(C)C)NC(=O)[C@H](CCCNC(=N)N)NC(=O)[C@H](CCC(N)=O)NC(=O)[C@@H](NC(=O)[C@H](C)NC(=O)[C@@H]1CSSC[C@H](NC(=O)[C@H](CCCCN)NC(=O)[C@@H](N)CCCCNC(=O)CC[C@H](NC(=O)CCCCCCCCCCCCCCCCC(=O)O)C(=O)O)C(=O)N[C@@H](CC(N)=O)C(=O)N[C@@H]([C@@H](C)O)C(=O)N[C@@H](C)C(=O)N[C@@H]([C@@H](C)O)C(=O)N1)[C@@H](C)O)C(=O)N[C@@H](CC(C)C)C(=O)NC(C)(C)C(=O)N1CCC[C@H]1C(=O)N[C@H](C(=O)N[C@@H](CC(N)=O)C(=O)N[C@H](C(=O)NCC(=O)N[C@@H](CO)C(=O)N[C@@H](CC(N)=O)C(=O)N[C@H](C(=O)N[C@@H](Cc1ccc(O)cc1)C(N)=O)[C@@H](C)O)C(C)C)[C@@H](C)O [Peptide 96, K(γE-C18diacid)K[CNTATC]ATQRLANFL(Aib)HSSNNFGPIL(Aib)PTNVGSNTY-amide] (H-K([γGlu-C18 diacid])KCNTATCATQRLANFL[Aib]HSSNNFGPIL[Aib]PTNVGSNTY-NH2; disulfide 3-8; N-terminus assumed) | 2 | 556 pM | 859 pM
2 | CC[C@H](C)[C@H](NC(=O)[C@@H]1CCCN1C(=O)CNC(=O)[C@H](Cc1ccccc1)NC(=O)[C@H](CC(N)=O)NC(=O)[C@H](CC(N)=O)NC(=O)[C@H](CO)NC(=O)[C@H](CO)NC(=O)[C@H](Cc1c[nH]cn1)NC(=O)C(C)(C)NC(=O)[C@H](CC(C)C)NC(=O)[C@H](Cc1ccccc1)NC(=O)[C@H](CC(N)=O)NC(=O)[C@H](C)NC(=O)[C@H](CC(C)C)NC(=O)[C@H](CCCNC(=N)N)NC(=O)[C@H](CCC(N)=O)NC(=O)[C@@H](NC(=O)[C@H](C)NC(=O)[C@@H]1CSSC[C@H](NC(=O)[C@H](CCCCN)NC(=O)[C@@H](N)CCCCNC(=O)CC[C@H](NC(=O)CCCCCCCCCCCCCCCCC(=O)O)C(=O)O)C(=O)N[C@@H](CC(N)=O)C(=O)N[C@@H]([C@@H](C)O)C(=O)N[C@@H](C)C(=O)N[C@@H]([C@@H](C)O)C(=O)N1)[C@@H](C)O)C(=O)N[C@@H](CC(C)C)C(=O)N1CCC[C@H]1C(=O)NC(C)(C)C(=O)N[C@H](C(=O)N[C@@H](CC(N)=O)C(=O)N[C@H](C(=O)NCC(=O)N[C@@H](CO)C(=O)N[C@@H](CC(N)=O)C(=O)N[C@H](C(=O)N[C@@H](Cc1ccc(O)cc1)C(N)=O)[C@@H](C)O)C(C)C)[C@@H](C)O [Peptide 97, K(γE-C18diacid)K[CNTATC]ATQRLANFL(Aib)HSSNNFGPILP(Aib)TNVGSNTY-amide] (H-K([γGlu-C18 diacid])KCNTATCATQRLANFL[Aib]HSSNNFGPILP[Aib]TNVGSNTY-NH2; disulfide 3-8; N-terminus assumed) | 1 | 684 pM | 944 pM
